According to patent publication US20220402867A1, “SULFO-SUBSTITUTED BIARYL COMPOUND OR SALT THEREOF, PREPARATION METHOD THEREFOR, AND USE THEREOF” (Shanghai Litedd Co., Ltd., priority 2019, published 2022):

Experiments:
GST-RORγ LBD (263-509) = target: T1, GST-RORγ LBD (263-509) (Homo sapiens, UniProt P51449); test: TR-FRET assay of agonistic activity on RORγ receptor; assay type: biochemical; conditions: for EC50: TR-FRET, GST-RORγ LBD with Biotin-SRC1; for Emax: maximum activation rate, TOP of fitted curve
T1 construct: GST-RORγ LBD ((263-509) (produced at ChemPartner))
T1 sequence (P51449 263-509): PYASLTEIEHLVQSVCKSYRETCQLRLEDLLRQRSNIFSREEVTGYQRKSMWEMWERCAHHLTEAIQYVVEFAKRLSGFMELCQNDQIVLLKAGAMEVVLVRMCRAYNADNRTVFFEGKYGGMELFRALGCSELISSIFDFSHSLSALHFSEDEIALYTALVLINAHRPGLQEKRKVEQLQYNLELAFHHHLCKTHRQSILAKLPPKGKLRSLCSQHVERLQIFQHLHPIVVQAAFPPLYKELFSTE
How it was run: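 GST-RORγ LBD (75 nM solution) mixed 1:1 with Biotin-SRC1 (4 nM solution), then with Eu anti-GST and SA-APC; compounds in 10-point 3-fold series from 10 mM stock, duplicate.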

[1] = target: T2, RORγt (RORγ-LBD chimeric receptor) (Homo sapiens, UniProt P51449); test: Luciferase reporter gene assay of RORγt agonistic activity in HEK293T cells; assay type: cell-based; set-up: Emax: dose or concentration left out as unconfirmed; conditions: for EC50: HEK293T, GAL4 luciferase reporter, read-out: EC50; for Emax: HEK-293T
T2 construct: host or cells: HEK293T
T2 sequence (P51449 269-508 limits assumed): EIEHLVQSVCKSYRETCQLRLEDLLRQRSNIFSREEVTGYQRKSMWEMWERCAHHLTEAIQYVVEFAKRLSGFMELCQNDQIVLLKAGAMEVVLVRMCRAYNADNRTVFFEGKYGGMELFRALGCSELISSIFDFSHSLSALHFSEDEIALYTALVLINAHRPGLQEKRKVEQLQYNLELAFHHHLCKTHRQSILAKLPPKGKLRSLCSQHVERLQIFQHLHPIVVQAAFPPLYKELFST
How it was run: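 EC50 derived from % activity (relative to positive control and vehicle) versus log concentration, using luciferase luminescence in transfected HEK293T cells. The cells carried a RORγ-LBD/GAL4 chimera plus a GAL4-promoter reporter; compounds were 3-fold serially diluted, 10 points from a 10 mM DMSO stock.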

human PBMC (Th17 cells) = test: Th17 differentiation and IL-17 secretion in human PBMC; assay type: cell-based; conditions: IL-17 ELISA after 48 hours; for Emax: maximum activation rate
Protocol: Test procedure: PBMC cells were first thawed and plated, and then stimulated with stimulating factors (anti-hCD28: 5 μg/mL; rhTGF-β1: 5 ng/mL; rhIL-6: 20 ng/mL; rhIL-23: 10 ng/Ml) to differentiate to Th17, while adding different concentrations of compounds. All test compounds were serially diluted at 3-fold dilution with DMSO, with 8 serial dilutions starting from the maximum concentration 3 μM. The supermatants were collected after 48 hours for IL-17 ELISA detection, and compared with the solvent group, to determine the activation rate of the compounds on Th17 cells to secrete IL-17. EC50 values were fitted with Graphad8.0, and the TOP values fitted by the software was Emax %.

Row | Structure (SMILES) | EC50 (GST-RORγ LBD (263-509)) [nM] | Emax (GST-RORγ LBD (263-509)) [%] | EC50 [1] [nM] | Emax [1] [%] | EC50 (human PBMC (Th17 cells)) [nM] | Emax (human PBMC (Th17 cells)) [%]
1 | COCC(C(=O)Nc1ccc(-c2ccc(S(=O)(=O)C3CC3)cc2)c(C(F)(F)F)c1)c1ccc(S(C)(=O)=O)cc1 (single isomer, unassigned) [Example 43, (S)—N-(4′-(cyclopropylsulfonyl)-2-(trifluoromethyl)-[1,1′-biphenyl]-4-yl)-3-methoxy-2-(4-(methylsulfonyl)phenyl)propionamide or (R)—N-(4′-(cyclopropylsulfonyl)-2-(trifluoromethyl)-[1,1′-biphenyl]-4-yl)-3-methoxy-2-(4-(methylsulfonyl)phenyl)propanamide] | 6.2 | 194 | 57 | 64.1 | 135 | 265
2 | CCS(=O)(=O)c1ccc(CC(=O)Nc2cc(Cl)c(-c3ccc(S(C)(=O)=O)cc3)c(Cl)c2)cc1 [Example 2, N-(2,6-dichloro-4′-(methylsulfonyl)-[1,1′-biphenyl]-4-yl)-2-(4-(ethylsulfonyl)phenyl)acetamide] | 9.1 | 210 | 19 | 43 | 61.6 | 138
3 | CCS(=O)(=O)c1ccc(-c2c(Cl)cc(NC(=O)Cc3ccc(S(=O)(=O)CC)cn3)cc2Cl)cc1 [Example 5, N-(2,6-Dichloro-4′-(ethylsulfonyl)-[1,1′-biphenyl]-4-yl)-2-(5-(ethylsulfonyl)pyridin-2-yl)acetamide] | 8.5 | 222 | 37 | 69.6 | 33.2 | 123
4 | CCS(=O)(=O)c1ccc(-c2c(Cl)cc(NC(=O)Cc3ccc(S(C)(=O)=O)cn3)cc2Cl)cc1 [Example 9, N-(2,6-Dichloro-4′-(ethylsulfonyl)-[1,1′-biphenyl]-4-yl)-2-(5-(methylsulfonyl)pyridin-2-yl)acetamide] | 22.2 | 160 | 53 | 51.5 | 360 | 167
5 | CS(=O)(=O)c1ccc(CC(=O)Nc2cc(Cl)c(-c3ccc(S(=O)(=O)C4CC4)cc3)c(Cl)c2)cc1 [Example 11, N-(2,6-Dichloro-4′-(cyclopropylsulfonyl)-[1,1′-biphenyl]-4-yl)-2-(4-(methylsulfonyl)phenyl)acetamide] | 6.8 | 167 | 15 | 45 | 52.8 | 149
6 | CCS(=O)(=O)c1ccc(C(COC)C(=O)Nc2cc(Cl)c(-c3ccc(S(=O)(=O)C4CC4)cc3)c(Cl)c2)cc1 (stereo not drawn) [Example 16, N-(2,6-Dichloro-4′-(cyclopropylsulfonyl)-[1,1′-biphenyl]-4-yl)-2-(4-(ethylsulfonyl)phenyl)-3-methoxypropionamide] | 16.6 | 187 | 181 | 85.6 | 27.3 | 202

The remaining compounds from weak to strong by EC50 (GST-RORγ LBD (263-509)), led by results:

Row | EC50 (GST-RORγ LBD (263-509)) [nM] | Emax (GST-RORγ LBD (263-509)) [%] | EC50 [1] [nM] | Emax [1] [%] | Structure (SMILES) | EC50 (human PBMC (Th17 cells)) [nM] | Emax (human PBMC (Th17 cells)) [%]
7 | 19.5 | 192 | 81 | 63.5 | COCC(C(=O)Nc1cc(Cl)c(-c2ccc(S(=O)(=O)C3CC3)cc2)c(Cl)c1)c1ccc(S(C)(=O)=O)cc1 (stereo not drawn) [Example 20, N-(2,6-Dichloro-4′-(cyclopropylsulfonyl)-[1,1′-biphenyl]-4-yl)-3-methoxy-2-(4-(methylsulfonyl)phenyl)propionamide] | 18.9 | 228
8 | 12.1 | 171 | 69 | 71.9 | CCS(=O)(=O)c1ccc(-c2c(Cl)cc(NC(=O)C(COC)c3ccc(S(=O)(=O)CC)cc3)cc2Cl)cc1 (stereo not drawn) [Example 13, N-(2,6-Dichloro-4′-(ethylsulfonyl)-[1,1′-biphenyl]-4-yl)-2-(4-(ethylsulfonyl)phenyl)-3-methoxypropionamide] | 6.2 | 139
9 | 10.1 | 170 | 44 | 37.9 | CCS(=O)(=O)c1ccc(CC(=O)Nc2cc(Cl)c(-c3ccc(S(C)(=O)=O)cc3)c(Cl)c2)nc1 [Example 8, N-(2,6-Dichloro-4′-(methylsulfonyl)-[1,1′-biphenyl]-4-yl)-2-(5-(ethylsulfonyl)pyridin-2-yl)acetamide] | 347 | 129
10 | 9.6 | 220 | 17 | 64 | CCS(=O)(=O)c1ccc(-c2c(Cl)cc(NC(=O)Cc3ccc(S(C)(=O)=O)cc3)cc2Cl)cc1 [Example 4, N-(2,6-Dichloro-4′-(ethylsulfonyl)-[1,1′-biphenyl]-4-yl)-2-(4-(methylsulfonyl)phenyl)acetamide] | 30.4 | 152
